For data set [1], the target named is T1, Gpx from bovine erythrocytes (Bos taurus, UniProt P00435).
T1 sequence (P00435 1-205): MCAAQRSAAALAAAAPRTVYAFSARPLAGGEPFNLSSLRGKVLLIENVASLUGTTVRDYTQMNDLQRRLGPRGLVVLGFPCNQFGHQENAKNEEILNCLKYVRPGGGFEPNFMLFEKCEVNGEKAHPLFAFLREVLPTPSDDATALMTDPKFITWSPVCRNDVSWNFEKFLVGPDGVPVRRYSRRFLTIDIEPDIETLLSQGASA
Format: biochemical.

Data set [2] addresses T2, rat TrxR (Rattus norvegicus, UniProt O89049).
T2 sequence (O89049 1-499): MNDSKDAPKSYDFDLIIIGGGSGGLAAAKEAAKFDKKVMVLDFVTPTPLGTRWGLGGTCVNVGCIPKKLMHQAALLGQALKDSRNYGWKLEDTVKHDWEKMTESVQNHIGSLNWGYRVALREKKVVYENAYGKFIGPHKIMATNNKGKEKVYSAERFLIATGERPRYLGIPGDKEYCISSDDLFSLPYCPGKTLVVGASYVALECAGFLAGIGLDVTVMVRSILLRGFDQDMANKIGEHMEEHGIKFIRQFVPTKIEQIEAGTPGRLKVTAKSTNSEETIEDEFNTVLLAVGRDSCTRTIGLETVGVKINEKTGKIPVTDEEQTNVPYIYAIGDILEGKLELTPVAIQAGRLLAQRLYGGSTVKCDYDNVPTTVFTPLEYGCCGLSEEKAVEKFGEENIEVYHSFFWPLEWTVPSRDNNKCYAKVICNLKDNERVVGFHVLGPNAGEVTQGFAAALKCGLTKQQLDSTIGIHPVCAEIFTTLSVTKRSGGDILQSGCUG
As to the kind of experiment: biochemical.

In data set [3] the target is T2, rat TrxR.
The target in data set [4] is T3, TrxR activity in HeLa cells (Homo sapiens, UniProt Q16881).
T3 sequence (Q16881 1-499 isoform Q16881-5): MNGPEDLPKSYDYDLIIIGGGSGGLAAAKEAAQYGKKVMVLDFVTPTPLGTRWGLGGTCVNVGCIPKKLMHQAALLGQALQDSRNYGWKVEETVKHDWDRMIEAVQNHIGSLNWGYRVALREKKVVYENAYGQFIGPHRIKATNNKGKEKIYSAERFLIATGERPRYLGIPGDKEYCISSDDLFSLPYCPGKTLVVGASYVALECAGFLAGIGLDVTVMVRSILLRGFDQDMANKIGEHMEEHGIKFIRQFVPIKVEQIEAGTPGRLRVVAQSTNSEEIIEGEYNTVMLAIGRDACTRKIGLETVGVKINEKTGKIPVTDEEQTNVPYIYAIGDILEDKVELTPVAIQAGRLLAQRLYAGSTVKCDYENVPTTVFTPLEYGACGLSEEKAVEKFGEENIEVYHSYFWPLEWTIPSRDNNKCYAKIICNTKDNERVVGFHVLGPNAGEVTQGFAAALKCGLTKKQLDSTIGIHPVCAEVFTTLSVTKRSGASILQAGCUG
As to the kind of experiment: cell-based. The settings on record: for inhibition of cellular TrxR activity: 12 h.

Data set [5] concerns the target T4, TrxR C-terminus active site Sec and Cys (Rattus norvegicus, UniProt O89049).
T4 sequence (O89049 1-499): T2 sequence (O89049 1-499)

Data set [6] deals with HeLa cells. Nature of the data set: Cell viability MTS assay. Format: cell-based, human. The note with it: 2 and 3 μM selenite. (Tetrazolium assays rely on reduction of a dye to a coloured formazan, in cell work by metabolically active cells.)
Data set [7] has as its system TrxR. The settings on record: cited from earlier work.
Data set [8] has as its system HeLa. The note with it: three day continuous treatment; cited from earlier work.
The subject of data set [9] is GR. The settings on record: cited from earlier work.
Setting [10] is: HeLa, read-out: inhibition of cellular TrxR activity.

Converted amounts (≈) assume the structure as drawn. Where two headings read alike, the source gives them in different places. Bounds are passed on as bounds.

For orientation: IC50 means the concentration at which inhibition is half-maximal.

Regarding `CC1=CC2=C(C)C3(CC3)[C@@](C)(O)C(=O)C2=C1` [AF, acylfulvene], in [1], the “drug concentration at which an increase in Gpx activity was observed” value (“drug concentration at which an increase” below) was not below 20 µM. The compound also returned a half-maximal inhibitory concentration (IC50) in data set [2] of 7.3 µM. Further, in data set [2] (read-out: TrxR activity inhibited within five minutes), the inhibition at 50 µM is more than 60%. Besides, the “reversibility of TrxR inhibition (gel filtration)” value in [3] is “irreversible”. In addition, in data set [4] (setting [10]), the inhibition at 0.2 µM worked out at 20%, the inhibition at 1 µM was found to be 35% and the inhibition at 4 µM is 60%. In [5] (pH 6.5), the “intensity of BIAM label” value is “diminished in intensity”. The BIAM labeling result in data set [5] (pH 8.5) is “almost abolished”.
On to `C[S+]([O-])CCCCN=C=S` (stereo not shown) [sulforaphane, reference compound], for which the “effect in preliminary Se plus sulforaphane TrxR co-induction tests” value in data set [4] (HeLa cells, data not shown) is “potentially confounding direct inhibitory properties”.
With `O=[Se]([O-])[O-].[Na+].[Na+]` [selenite, sodium selenite], the “cytotoxicity of added selenite (cells detached from culture dish)” value in data set [6] is “caused cytotoxicity”.
With `O=C(O)CCCc1ccc(N(CCCl)CCCl)cc1` [chlorambucil], in data set [7], the “IC50, TrxR inhibition” value is recorded as “micromolar”.
`N[C@@H](Cc1ccc(N(CCCl)CCCl)cc1)C(=O)O` [melphalan]: the “IC50, TrxR inhibition” value in data set [7] is “micromolar”.
With `CC1=C2C(=C[C@@](C)(CO)[C@@H]2O)C(=O)[C@](C)(O)C12CC2` [illudin S, reference compound], in [1], the “drug concentration at which an increase” value is not below 1000 µM and the “effect on Gpx activity” value is given as “none of the tested drugs caused a decrease in enzyme activity”. The 50% inhibitory concentration (IC50) in [2] came out at 260 µM. Further, the “inhibition of TrxR without pre-reduction” value in data set [3] is reported as “no inhibition was observed”. In addition, in data set [4] (setting [10]), the inhibition at 0.2 µM worked out at 20% and the inhibition at 1 µM came out at 50%.
Turning to `NC(=O)CI` [IAA, iodoacetamide], the IC50 in [1] (read-out: IC50, inhibition of Gpx activity) was 2400 µM.
With `CC1=C(CO)C2=C(C)C3(CC3)[C@@](C)(O)C(=O)C2=C1` [HMAF, hydroxymethylacylfulvene], in data set [8], the “IC50, cytotoxicity” value is 0.02 µg/mL (≈ 0.0812 µM). The “drug concentration at which an increase” value in data set [1] is not below 2 µM. In data set [9], the “type of GR inhibition” value is “irreversible”. Besides, in data set [3] (7.5 μM HMAF, pre-reduced TrxR, 25 °C), the “TrxR activity inhibited within five minutes” value was “over 60%”. Also, the “reversibility of TrxR inhibition (gel filtration)” value in [3] (2 h reaction, unbound drug removed by size exclusion column) is on record as “irreversible”. In [3] (read-out: IC50, inhibition of DTNB reduction activity of TrxR, NADPH-reduced TrxR (80 nM), 2 h at 25 °C), the IC50 was found to be 0.38 µM. Moreover, the “inhibition of cellular TrxR activity” value is 20% in data set [4] (HeLa cells, 0.2 μM); 60% in data set [4] (HeLa cells, 1 μM); “eliminated cellular TrxR activity” in [4] (HeLa cells, 4 μM). In addition, the “intensity of BIAM label” value in [5] (pH 6.5 (free Sec), 5 μM HMAF) was “diminished in intensity”. In addition, the BIAM labeling result in data set [5] (pH 8.5 (free Cys and Sec), 25 μM HMAF) was “almost abolished”.
